What was measured:
Experiment in all cases: NCI 60 human tumor cell line screen (SRB)
Type in all cases: cell-based
[1] = system: MCF7; details: MCF7 (Breast Cancer); 48 h
Procedure, shortened: (§1)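 Cells plated 24 h before dosing, with time-zero plates TCA-fixed at drug addition; five concentrations (10-fold or ½-log dilutions) added and incubated 48 h at 37 °C, 5% CO2. Adherent cells fixed with 10% TCA, stained with 0.4% SRB, absorbance read at 515 nm; GI50, TGI and LC50 derived from percentage growth versus time zero and control.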

[2] = system: NCI-H23; details: NCI-H23 (Non-Small Cell Lung Cancer); 48 h
Procedure, shortened: as §1

[3] = system: SNB-19; details: SNB-19 (CNS Cancer); 48 h
Procedure, shortened: as §1

[4] = system: HCT-15; details: HCT-15 (Colon Cancer); 48 h
Procedure, shortened: as §1

[5] = system: BT-549; details: BT-549 (Breast Cancer); 48 h
Procedure, shortened: as §1

[6] = system: OVCAR-5; details: OVCAR-5 (Ovarian Cancer); 48 h
Procedure, shortened: as §1

[7] = system: MALME-3M; details: MALME-3M (Melanoma); 48 h
Procedure, shortened: as §1

[8] = system: OVCAR-4; details: OVCAR-4 (Ovarian Cancer); 48 h
Procedure, shortened: as §1

[9] = system: SNB-75; details: SNB-75 (CNS Cancer); 48 h
Procedure, shortened: as §1

[10] = system: HT29; details: HT29 (Colon Cancer); 48 h
Procedure, shortened: as §1

[11] = system: A498; details: A498 (Renal Cancer); 48 h
Procedure, shortened: as §1

[12] = system: A549/ATCC; details: A549/ATCC (Non-Small Cell Lung Cancer); 48 h
Procedure, shortened: as §1

SMILES	Log10GI50 [1]	Log10LC50 [1]	Log10TGI50 [1]	Log10GI50 [2]	Log10LC50 [2]	Log10TGI50 [2]	Log10GI50 [3]	Log10LC50 [3]	Log10TGI50 [3]	Log10GI50 [4]	Log10LC50 [4]	Log10TGI50 [4]	Log10GI50 [5]	Log10LC50 [5]	Log10TGI50 [5]	Log10GI50 [6]	Log10LC50 [6]	Log10TGI50 [6]	Log10GI50 [7]	Log10LC50 [7]	other results
Cc1ncc(C(=O)N[C@@H](COC(F)F)C(=O)N[C@@H](COC(F)F)C(=O)N[C@@H](Cc2ccccc2)C(=O)[C@@]2(C)CO2)s1 [Example 1, 2-methyl-thiazole-5-carboxylic acid ((S)-1-{(S)-1-[(S)-1-benzyl-2-((R)-2-methyloxiranyl)-2-oxo-ethylcarbamoyl]-2-difluoromethoxyethylcarbamoyl}-2-difluoromethoxyethyl)-amide]	−7.35	>−4.00	−4.62	−6.85	−5.27	−5.92	−6.49	>−4.00	>−4.00	−5.65	−4.16	−4.93	−7.49	−5.74	−6.87	−6.18	−4.17	−5.30	−7.30	>−4.00	Log10TGI50 [7]: −6.38; Log10GI50 [8]: −6.29; Log10LC50 [8]: >−4.00; Log10TGI50 [8]: >−4.00; Log10GI50 [9]: −6.81; Log10LC50 [9]: >−4.00; Log10TGI50 [9]: −6.24; Log10GI50 [10]: −7.29; Log10LC50 [10]: −4.32; Log10TGI50 [10]: −6.22; Log10GI50 [11]: −8.00; Log10LC50 [11]: −4.88; Log10TGI50 [11]: −6.38; Log10GI50 [12]: −6.41; Log10LC50 [12]: >−4.00; Log10TGI50 [12]: >−4.00
CC(C)C[C@H](NC(=O)[C@H](Cc1ccccc1)NC(=O)[C@H](COC(F)F)NC(=O)CN1CCOCC1)C(=O)[C@@]1(C)CO1 [Example 25, (2S)-2-[[(2S)-3-(difluoromethoxy)-2-[(2-morpholinoacetyl)amino]propanoyl]amino]-N-[(1S)-3-methyl-1-[(2R)-2-methyloxirane-2-carbonyl]butyl]-3-phenyl-propanamide]	−7.53	>−4.00	−4.89	−7.62	−5.64	−7.13	−7.23	>−4.00	>−4.00	−6.47	>−4.00	>−4.00	−7.73	−7.05	−7.39	−7.36	>−4.00	−6.44	−7.51	>−4.00	Log10TGI50 [7]: −6.64; Log10GI50 [8]: −7.50; Log10LC50 [8]: >−4.00; Log10TGI50 [8]: −6.75; Log10GI50 [9]: −7.71; Log10LC50 [9]: −6.35; Log10TGI50 [9]: −7.24; Log10GI50 [10]: −7.45; Log10LC50 [10]: >−4.00; Log10TGI50 [10]: −5.84; Log10GI50 [11]: −7.61; Log10LC50 [11]: −6.34; Log10TGI50 [11]: −7.03; Log10GI50 [12]: −7.41; Log10LC50 [12]: >−4.00; Log10TGI50 [12]: −6.13
C[C@]1(C(=O)[C@H](Cc2ccccc2)NC(=O)[C@H](COC(F)F)NC(=O)[C@H](COC(F)F)NC(=O)CN2CCOCC2)CO1 [Example 26, (S)-N-{(S)-1-[(S)-1-Benzyl-2-((R)-2-methyl-oxiranyl)-2-oxo-ethylcarbamoyl]-2-difluoromethoxyethyl}-3-difluoromethoxy-2-(2-morpholin-4-yl-acetylamino)-propio-namide]	−7.53	>−4.00	−4.89	−7.62	−5.64	−7.13	−7.23	>−4.00	>−4.00	−6.47	>−4.00	>−4.00	−7.73	−7.05	−7.39	−7.36	>−4.00	−6.44	−7.51	>−4.00	Log10TGI50 [7]: −6.64; Log10GI50 [8]: −7.50; Log10LC50 [8]: >−4.00; Log10TGI50 [8]: −6.75; Log10GI50 [9]: −7.71; Log10LC50 [9]: −6.35; Log10TGI50 [9]: −7.24; Log10GI50 [10]: −7.45; Log10LC50 [10]: >−4.00; Log10TGI50 [10]: −5.84; Log10GI50 [11]: −7.61; Log10LC50 [11]: −6.34; Log10TGI50 [11]: −7.03; Log10GI50 [12]: −7.41; Log10LC50 [12]: >−4.00; Log10TGI50 [12]: −6.13
C[C@]1(C(=O)[C@H](Cc2ccccc2)NC(=O)[C@H](Cc2ccccc2)NC(=O)[C@H](COC(F)F)NC(=O)CN2CCOCC2)CO1 [Example 29]	−7.38	>−4.00	>−4.00	−7.21	>−4.00	−5.55	−6.51	>−4.00	>−4.00	−6.20	>−4.00	>−4.00	−7.26	−4.94	−6.59	−6.65	>−4.00	−5.58	−6.69	>−4.00	Log10TGI50 [7]: −6.15; Log10GI50 [8]: −6.98; Log10TGI50 [8]: >−4.00; Log10GI50 [9]: −6.83; Log10LC50 [9]: −5.96; Log10TGI50 [9]: −6.41; Log10GI50 [10]: −7.31; Log10LC50 [10]: >−4.00; Log10TGI50 [10]: −4.77; Log10GI50 [11]: −6.68; Log10LC50 [11]: −5.47; Log10TGI50 [11]: −6.11; Log10GI50 [12]: −6.68; Log10LC50 [12]: >−4.00; Log10TGI50 [12]: >−4.00
